System: ncRNAs (SEQ ID NO 28-89)
Assay: ncRNA arrays of melanocytes, keratinocytes, normal skin, melanoma cell lines and patient samples
Parameters: species or system human
Details: for ncRNA array expression, patient 2: melanoma patient 2 sample compared to normal skin; for ncRNA array expression, patient 3: melanoma patient 3 sample compared to normal skin; for ncRNA array expression, patient 4: melanoma patient 4 sample compared to normal skin; for ncRNA array expression, patient 5: melanoma patient 5 sample compared to normal skin; for ncRNA array expression, patient 6: melanoma patient 6 sample compared to normal skin; for ncRNA array expression, patient 7: melanoma patient 7 sample compared to normal skin; for ncRNA array expression, patient 8: melanoma patient 8 sample compared to normal skin; for ncRNA array expression, patient 9: melanoma patient 9 sample compared to normal skin; for ncRNA array expression, patient 10: melanoma patient 10 sample compared to normal skin; for ncRNA array expression, patient 19: melanoma patient 19 sample compared to normal skin; for ncRNA array expression, patient 20: melanoma patient 20 sample compared to normal skin; for ncRNA array expression, patient 21: melanoma patient 21 sample compared to normal skin; for ncRNA array expression, patient 22: melanoma patient 22 sample compared to normal skin; for ncRNA array expression, patient 23: melanoma patient 23 sample compared to normal skin; for ncRNA array expression, patient 24: melanoma patient 24 sample compared to normal skin; for ncRNA array expression, patient 25: melanoma patient 25 sample compared to normal skin; for ncRNA array expression, patient 26: melanoma patient 26 sample compared to normal skin; for ncRNA array expression, patient 27: melanoma patient 27 sample compared to normal skin; for ncRNA array expression, patient 28: melanoma patient 28 sample compared to normal skin; for ncRNA array expression, patient 29: melanoma patient 29 sample compared to normal skin; for ncRNA array expression, patient 30: melanoma patient 30 sample compared to normal skin
Procedure: An ncRNA array platform that contains over 10,000 putative (>200 nt) ncRNAs including most of the known ncRNAs in mouse and human was conducted to evaluate ncRNAs within melanoma. Lack of coding potential was estimated by an algorithm that scores various characteristics of protein-coding genes, including open reading frame length, synonymous/non-synonymous base substitution rates and similarity to known proteins. These arrays provide the first generation of tools designed to analyze the dynamic expression of a large subset of ncRNAs in human and mouse and to identify candidate genes for more detailed functional analysis. In addition to the ncRNA content, probes targeting mRNA content from RefSeq are also included, allowing discovery of coordinated expression with associated protein-coding genes. The result of these assays is a list of ncRNA genes (i.e. SEQ ID NO 28-89) and maps of their sequence boundaries. We have profiled total RNA isolated from melanocytes, keratinocytes, normal human skin, melanoma cell lines and melanoma patient samples to identify differentially expressed ncRNAs in cell lines and tissues. ncRNAs expression in all tested samples were compared to either melanocytes or normal skin. We have identified a group of ncRNAs that are specific for (a) melanocytes (b) Keratinocytes (c) Melanoma cell lines (d) Melanoma patients. […] Probe DNA sequences for this array include: AF086032 (SEQ ID NO 107) […] BC071821 (SEQ ID NO 108) […] C AK130193 (SEQ ID NO 109) […] AL109719 (SEQ ID NO 110) […] AF085888 (SEQ ID NO 111) […] T BC033879 (SEQ ID NO 112) […] AA AK024556 (SEQ ID NO 113) […] Probe nomenclature is standard genebank IDs given by NCBI and other organizations.
Keratinocytes specific signatures were subtracted and resultant ncRNAs were validated by qRT-PCR and Northern blots. Results point out the presence of a group of melanoma specific ncRNAs (i.e. SEQ ID NO 28-89).

Substance | ncRNA array expression, patient 2 | ncRNA array expression, patient 3 | ncRNA array expression, patient 4 | ncRNA array expression, patient 5 | ncRNA array expression, patient 6 | ncRNA array expression, patient 7 | ncRNA array expression, patient 8 | ncRNA array expression, patient 9 | ncRNA array expression, patient 10 | ncRNA array expression, patient 19 | ncRNA array expression, patient 20 | ncRNA array expression, patient 21 | ncRNA array expression, patient 22 | ncRNA array expression, patient 23 | ncRNA array expression, patient 24 | ncRNA array expression, patient 25 | ncRNA array expression, patient 26 | ncRNA array expression, patient 27 | ncRNA array expression, patient 28 | ncRNA array expression, patient 29 | also measured
SEQ ID NO 32 (ATTCAAATCTTCATGAATGGCATCACTTGCTTTAGACCCATTTTTTTTTTATTGGTCAGA; DNA, backbone and methylation of C not given here; listed as Homo sapiens) | 1.211 | 0.4737 | 2.717 | 1.51 | 0.7439 | 1.568 | 2.606 | 1.062 | 0.7286 | 2.126 | 3.196 | 0.7443 | 0.9022 | 0.8613 | 1.339 | 4.072 | 3.121 | 3.501 | 0.9963 | 1.473 | ncRNA array expression, patient 30: −2.05
SEQ ID NO 58 (ATTTATTTGACTCTAAAATGACAATATAACAACTATAAGGAATTGATATGATGTCCTTAC; listed as DNA, chemistry not given here; listed as Homo sapiens) | −1.675 | −1.723 | −0.4325 | −1.707 | −1.802 | −1.2619 | −1.825 | −1.569 | −1.223 | −1.471 | −1.134 | −1.719 | −1.28 | −1.756 | −1.757 | −1.52 | −1.463 | −1.595 | −1.708 | −1.543 | ncRNA array expression, patient 30: −1.631
SEQ ID NO 69 (AGAGTTCGCACTGGGAAGAGTTAAAAAATAAACATTTACAAGGACGAGGAAAGCGGCCCC; listed as DNA, chemistry not given here; listed as Homo sapiens) | −1.697 | −1.8068 | −1.369 | −1.797 | −0.5526 | −1.8141 | −1.777 | −1.618 | −1.696 | −0.9749 | −1.422 | −1.5966 | −0.8782 | −0.2153 | −1.796 | −1.178 | −1.015 | −0.7594 | −1.693 | −1.645 | ncRNA array expression, patient 30: 0.8457
SEQ ID NO 53 (ATATATTTAGATAGTACTATGTTTCGTTTTCTTCCGATTTCAGGGATCCTTTTGTCTTAC; listed as DNA, chemistry not given here; listed as Homo sapiens) | −2.867 | −2.306 | −2.08 | −2.02 | −1.882 | −2.068 | −1.878 | −2.195 | −3.16 | −2.319 | −1.903 | −2.124 | −2.7031 | −3.175 | −1.827 | −2.864 | −3.105 | −2.542 | −1.905 | −2.948 | ncRNA array expression, patient 30: −3.05
SEQ ID NO 60 (ACTAACAGCACTGGAGGGTGTAGTGTTTCCTACTTTATGGATGAGTGTACTGTGGGCTTC; listed as DNA, chemistry not given here; listed as Homo sapiens) | 2.776 | 2.279 | 2.327 | 0.8655 | −1.218 | 2.958 | 0.3154 | 1.739 | 2.002 | 0.3888 | 2.119 | 0.7491 | 3.236 | 1.416 | 1.295 | 1.226 | 1.537 | 1.485 | 0.6983 | 1.398 | ncRNA array expression, patient 30: 0.02973
SEQ ID NO 36 (TATTTGTGACTAACTGTATAACAGGTTATTTTAGTTTCTGTTCTGTGGGAAGTGTAAAGC; listed as DNA, chemistry not given here; listed as Homo sapiens) | 3.977 | 3.577 | 4.181 | 4.05 | 3.52 | 4.601 | 4.36 | 3.565 | 2.818 | 3.798 | 4.669 | 3.909 | 3.164 | 2.96 | 3.815 | 5.084 | 4.401 | 4.909 | 4.878 | 4.381 | ncRNA array expression, patient 30: −1.698
SEQ ID NO 89 (GGACACAGAGAGTCATGCACCAGCCCAGTGAGAACCAATTCAGAGCCAAATGCCAAACCC; listed as DNA, chemistry not given here; listed as Homo sapiens) | −1.09 | −1.2821 | −1.434 | −1.049 | −0.6535 | −0.5162 | −1.137 | −1.442 | −1.643 | −0.5304 | −0.7949 | −1.104 | −0.9143 | −0.3405 | −0.9409 | −1.675 | −1.6 | −0.9956 | −0.9677 | −1.266 | ncRNA array expression, patient 30: 0.7591

Reference: US20110143948A1, “MOLECULAR SIGNATURES AND BIOMARKERS ASSOCIATED WITH MELANOMA AND METHODS OF USE THEREOF” (priority 2008, published 2011)
